Experiments:
Type in all cases: in vivo
[1] = tested on: AMARE: Amaranthus retroflexus; assay: Pre-emergence herbicide efficacy at 1280 g/ha, AMARE; conditions: visual scoring after about 3 weeks vs untreated controls
Procedure, shortened: (§1)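 Seeds sown in sandy loam in pots and covered; compounds as WP or EC applied to covering soil surface as aqueous suspension/emulsion with 0.5% additive at 600 L/ha water. Greenhouse growth ~3 weeks, then visual % efficacy vs untreated controls (100% = plants dead, 0% = like control).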

[2] = tested on: MATIN: Matricaria inodora; assay: Pre-emergence herbicide efficacy at 1280 g/ha, MATIN; conditions: visual scoring after about 3 weeks vs untreated controls
Text: Seeds of mono- and dicotyledonous weed plants were placed in plastic pots in sandy loam soil (doubly sown with one species each of mono- or dicotyledonous weed plants per pot) and covered with soil. The compounds of the invention, formulated in the form of wettable powders (WP) or as emulsion concentrates (EC), were then applied to the surface of the covering soil as aqueous suspension or emulsion with addition of 0.5% additive at a water application rate of 600 litres per hectare (converted). After the treatment, the pots were placed in a greenhouse and kept under good growth conditions for the test plants. After about 3 weeks, the efficacy of the preparations was scored visually in comparison with untreated controls as percentages. For example, 100% activity=the plants have died, 0% activity=like control plants. Tables C1 to C12 below show the effects of selected compounds of the general formula (I) according to Table 1 on various harmful plants and at an application rate corresponding to 1280 g/ha, which were obtained by the trial procedure specified above.

KCHSC: Kochia scoparia = assay: Post-emergence herbicidal efficacy at 1280 g/ha, KCHSC; conditions: visual rating about 3 weeks after treatment vs untreated controls
Procedure, shortened: (§2)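 Weeds grown in sandy loam in the greenhouse were sprayed at the one-leaf stage, 2 to 3 weeks after sowing, with WP or EC formulations in water plus 0.5% additive at 600 L/ha. Damage was scored visually about 3 weeks later against untreated controls (0% = like control, 100% = plants dead).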

STEME: Stellaria media [3] = assay: Pre-emergence herbicide efficacy at 1280 g/ha, STEME; conditions: visual scoring vs untreated controls
Procedure, shortened: as §1

[4] = tested on: AMARE: Amaranthus retroflexus; assay: Post-emergence herbicidal efficacy at 1280 g/ha, AMARE; conditions: rated visually after about 3 weeks vs untreated controls, 100% = plants have died, 0% = like control plants
Procedure, shortened: as §2

VERPE: Veronica persica [5] = assay: Pre-emergence herbicide efficacy at 1280 g/ha, VERPE; conditions: visual scoring vs untreated controls
Procedure, shortened: as §1

[6] = tested on: DIGSA: Digitaria sanguinalis; assay: Post-emergence herbicidal efficacy at 1280 g/ha, DIGSA; conditions: rated visually after about 3 weeks vs untreated controls, 100% = plants have died, 0% = like control plants
Experimental: Seeds of mono- and dicotyledonous weed plants were placed in plastic pots in sandy loam soil (doubly sown with in each case one species of mono- or dicotyledonous weed plants per pot), covered with soil and cultivated in a greenhouse under controlled growth conditions. 2 to 3 weeks after sowing, the test plants were treated at the one-leaf stage. The compounds of the invention, formulated in the form of wettable powders (WP) or as emulsion concentrates (EC), were applied to the green parts of the plants as aqueous suspension or emulsion with addition of 0.5% additive at a water application rate equivalent to 600 litres per hectare. After the test plants had been kept in the greenhouse under optimum growth conditions for about 3 weeks, the activity of the preparations was rated visually in comparison to untreated controls. For example, 100% activity=the plants have died, 0% activity=like control plants. Tables A1 to A12 below show the effects of selected compounds of the general formula (I) according to Table 1 on various harmful plants and at an application rate corresponding to 1280 g/ha, which were obtained by the trial procedure specified above.

SETVI: Setaria viridis [7] = assay: Pre-emergence herbicide efficacy at 1280 g/ha, SETVI; conditions: visual scoring vs untreated controls
Procedure, shortened: as §1

[8] = tested on: ECHCG: Echinochloa crus-galli; assay: Pre-emergence herbicide efficacy at 1280 g/ha, ECHCG; conditions: visual scoring after about 3 weeks vs untreated controls
Procedure, shortened: as §1

[9] = tested on: ECHCG: Echinochloa crus-galli; assay: Post-emergence herbicidal efficacy at 1280 g/ha, ECHCG; conditions: rated visually after about 3 weeks vs untreated controls, 100% = plants have died, 0% = like control plants
Procedure, shortened: as §2

[10] = tested on: ABUTH: Abutilon theophrasti; assay: Pre-emergence herbicide efficacy at 1280 g/ha, ABUTH; conditions: visual scoring after about 3 weeks vs untreated controls
Procedure, shortened: as §1

SETVI: Setaria viridis [11] = assay: Post-emergence herbicidal efficacy at 1280 g/ha, SETVI; conditions: visual rating about 3 weeks after treatment vs untreated controls
Procedure, shortened: as §2

POAAN: Poa annua [12] = assay: Pre-emergence herbicide efficacy at 1280 g/ha, POAAN; conditions: visual scoring after about 3 weeks vs untreated controls
Procedure, shortened: as §1

POAAN: Poa annua [13] = assay: Post-emergence herbicidal efficacy at 1280 g/ha, POAAN; conditions: visual rating about 3 weeks after treatment vs untreated controls
Procedure, shortened: as §2

[14] = tested on: DIGSA: Digitaria sanguinalis; assay: Pre-emergence herbicide efficacy at 1280 g/ha, DIGSA; conditions: visual scoring after about 3 weeks vs untreated controls
Procedure, shortened: as §1

STEME: Stellaria media [15] = assay: Post-emergence herbicidal efficacy at 1280 g/ha, STEME; conditions: visual rating about 3 weeks after treatment vs untreated controls
Procedure, shortened: as §2

[16] = tested on: ABUTH: Abutilon theophrasti; assay: Post-emergence herbicidal efficacy at 1280 g/ha, ABUTH; conditions: rated visually after about 3 weeks vs untreated controls, 100% = plants have died, 0% = like control plants
Procedure, shortened: as §2

VERPE: Veronica persica [17] = assay: Post-emergence herbicidal efficacy at 1280 g/ha, VERPE; conditions: visual rating about 3 weeks after treatment vs untreated controls
Procedure, shortened: as §2

[18] = tested on: AMARE: Amaranthus retroflexus; assay: Pre-emergence herbicide efficacy at 80 g/ha, AMARE; conditions: scored visually after about 3 weeks
Text: (§3) Seeds of monocotyledonous and dicotyledonous weed plants and crop plants were placed in plastic or organic planting pots and covered with soil. The compounds of the invention, formulated in the form of wettable powders (WP) or as emulsion concentrates (EC), were then applied to the surface of the covering soil as aqueous suspension or emulsion with addition of 0.5% additive at a water application rate equivalent to 600 l/ha. After the treatment, the pots were placed in a greenhouse and kept under good growth conditions for the test plants. After about 3 weeks, the efficacy of the preparations was scored visually in comparison with untreated controls as percentages. For example, 100% activity=the plants have died, 0% activity=like control plants. Tables D1 to D12 below show the effects of selected compounds of the general formula (I) according to Table 1 on various harmful plants and an application rate corresponding to 80 g/ha, which were obtained by the experimental procedure mentioned above.

VERPE: Veronica persica [19] = assay: Post-emergence herbicidal efficacy at 80 g/ha, VERPE; conditions: visual rating about 3 weeks after treatment vs untreated controls
Experimental: (§4) Seeds of monocotyledonous and dicotyledonous weeds and crop plants were placed in sandy loam in plastic or organic planting pots, covered with soil and cultivated in a greenhouse under controlled growth conditions. 2 to 3 weeks after sowing, the test plants were treated at the one-leaf stage. The compounds of the invention, formulated in the form of wettable powders (WP) or as emulsion concentrates (EC), were then sprayed onto the green parts of the plants as aqueous suspension or emulsion with addition of 0.5% additive at a water application rate of 600 l/ha (converted). After the test plants had been kept in the greenhouse under optimum growth conditions for about 3 weeks, the activity of the preparations was rated visually in comparison to untreated controls. For example, 100% activity=the plants have died, 0% activity=like control plants. Tables B1 to B10 below show the effects of selected compounds of the general formula (I) according to Table 1 on various harmful plants and an application rate corresponding to 80 g/ha, which were obtained by the experimental procedure mentioned above.

POLCO = assay: Pre-emergence herbicide efficacy at 80 g/ha, POLCO; conditions: Polygonum convolvulus, scored visually after about 3 weeks
Text: as §3

[20] = tested on: DIGSA: Digitaria sanguinalis; assay: Pre-emergence herbicide efficacy at 80 g/ha, DIGSA; conditions: scored visually after about 3 weeks
Text: as §3

[21] = tested on: AMARE: Amaranthus retroflexus; assay: Post-emergence herbicidal efficacy at 80 g/ha, AMARE; conditions: visual rating about 3 weeks after treatment vs untreated controls
Experimental: as §4

## Fc1ccc(Sc2ccccc2Cc2ncc(F)cn2)cc1 [Example 1-104]
[1]
  Pre-emergence efficacy against AMARE: 100%
[2]
  Pre-emergence efficacy against MATIN: 100%
KCHSC: Kochia scoparia
  Post-emergence efficacy against KCHSC: 100%
STEME: Stellaria media [3]
  Pre-emergence efficacy against STEME in %: 100%
[4]
  Post-emergence efficacy at 1280 g/ha against AMARE in %: 100%
VERPE: Veronica persica [5]
  Pre-emergence efficacy against VERPE in %: 100%
[6]
  Post-emergence efficacy at 1280 g/ha against DIGSA in %: 100%
SETVI: Setaria viridis [7]
  Pre-emergence efficacy against SETVI in %: 100%
[8]
  Pre-emergence efficacy against ECHCG: 100%
[9]
  Post-emergence efficacy at 1280 g/ha against ECHCG in %: 100%
[10]
  Pre-emergence efficacy against ABUTH: 100%
SETVI: Setaria viridis [11]
  Post-emergence efficacy against SETVI: 90%
POAAN: Poa annua [12]
  Pre-emergence efficacy against POAAN: 100%
POAAN: Poa annua [13]
  Post-emergence efficacy against POAAN: 100%
[14]
  Pre-emergence efficacy against DIGSA: 100%
STEME: Stellaria media [15]
  Post-emergence efficacy against STEME: 100%
[16]
  Post-emergence efficacy at 1280 g/ha against ABUTH in %: 100%
VERPE: Veronica persica [17]
  Post-emergence efficacy against VERPE: 100%

## Cc1cccc(Cc2ncc(Cl)cn2)c1OS(=O)(=O)CCC(F)(F)F [Example 1-189]
[18]
  Pre-emergence efficacy against AMARE in %: 80%
VERPE: Veronica persica [19]
  Post-emergence efficacy against VERPE: 90%

## Cc1cccc(Cc2ncc(F)cn2)c1Oc1ncc(F)cn1 [Example 1-162]
[18]
  Pre-emergence efficacy against AMARE in %: 90%
POLCO
  Pre-emergence efficacy against POLCO in %: 80%

## Fc1cnc(Cc2cccc(Cl)c2Oc2ncc(Cl)cn2)nc1 [Example 1-157]
[18]
  Pre-emergence efficacy against AMARE in %: 100%
[20]
  Pre-emergence efficacy against DIGSA in %: 80%
[21]
  Post-emergence efficacy against AMARE: 80%

## Cc1cccc(Cc2ncc(Cl)cn2)c1Oc1ncc(F)cn1 [Example 1-165]
[20]
  Pre-emergence efficacy against DIGSA in %: 80%
POLCO
  Pre-emergence efficacy against POLCO in %: 80%

## Fc1cnc(Cc2cccc(F)c2Oc2ncc(Cl)cn2)nc1 [Example 1-154]
[18]
  Pre-emergence efficacy against AMARE in %: 100%
POLCO
  Pre-emergence efficacy against POLCO in %: 80%
[21]
  Post-emergence efficacy against AMARE: 90%

## O=S(=O)(CCCCl)Oc1c(F)cccc1Cc1ncc(Br)cn1 [Example 1-192]
VERPE: Veronica persica [19]
  Post-emergence efficacy against VERPE: 80%
